Assays:
[1] = test system: iaCMCs at day 6 of differentiation; experiment: Optical voltage mapping of iaCMC-d6 cultures exposed to astemizole, 1-Hz pacing; type: cell-based, rat
Description: For studying AP propagation in confluent monolayer cultures, cells were seeded at a density of 8×10^5 cells/well in 24-well cell culture plates onto bovine fibronectin-coated round glass coverslips (15 mm diameter) and subjected to optical voltage mapping using di-4-ANEPPS (Thermo Fisher Scientific) as fluorescent voltage indicator as described previously (Bingen et al., 2014). The measurements were carried out at 37° C. on 9-day-old naCMC and nvCMC cultures and on iaCMCs that had been maintained for 0, 3, 6, 9 and 12 days in Dox-free medium. Optical signals were captured using a MiCAM ULTIMA-L imaging system (SciMedia, Costa Mesa, Calif.). Optical traces were analyzed using Brain Vision Analyzer 1208 software (Brainvision, Tokyo, Japan). To minimize noise artifacts, calculations were based on the average of the signals at a selected pixel and its eight nearest neighbors. CV and APD at different percentages of repolarization were determined using cardiomyocyte cultures showing uniform AP propagation and 1:1 capture after 1-Hz local electrical stimulation with an epoxy-coated bipolar platinum electrode delivering square 10-ms, 8-V suprathreshold electrical impulses via a STG 2004 stimulus generator and MC Stimulus II software (both from Multi Channel Systems). Burst pacing with a cycle length of 20 to 100 ms was used to induce reentry. […] To facilitate comparison of the APD, the amplitude of the optical signal traces was normalized for all samples within a given experiment.

[2] = test system: confluent monolayers of iaCMCs; experiment: In vitro AF model: induction of reentry by burst pacing in confluent iaCMC monolayers; type: cell-based, rat; conditions: 100 nM tertiapin, iaCMCs at day 6, 9 or 12 of differentiation
Description: (§1) For studying AP propagation in confluent monolayer cultures, cells were seeded at a density of 8×10^5 cells/well in 24-well cell culture plates onto bovine fibronectin-coated round glass coverslips (15 mm diameter) and subjected to optical voltage mapping using di-4-ANEPPS (Thermo Fisher Scientific) as fluorescent voltage indicator as described previously (Bingen et al., 2014). The measurements were carried out at 37° C. on 9-day-old naCMC and nvCMC cultures and on iaCMCs that had been maintained for 0, 3, 6, 9 and 12 days in Dox-free medium. Optical signals were captured using a MiCAM ULTIMA-L imaging system (SciMedia, Costa Mesa, Calif.). Optical traces were analyzed using Brain Vision Analyzer 1208 software (Brainvision, Tokyo, Japan). To minimize noise artifacts, calculations were based on the average of the signals at a selected pixel and its eight nearest neighbors. CV and APD at different percentages of repolarization were determined using cardiomyocyte cultures showing uniform AP propagation and 1:1 capture after 1-Hz local electrical stimulation with an epoxy-coated bipolar platinum electrode delivering square 10-ms, 8-V suprathreshold electrical impulses via a STG 2004 stimulus generator and MC Stimulus II software (both from Multi Channel Systems). Burst pacing with a cycle length of 20 to 100 ms was used to induce reentry. […]

confluent naCMC cultures = conditions: naCMCs; Bingen et al., 2013; cited from earlier work
[3] = test system: iaCMCs at day 9 of differentiation; experiment: Optical voltage mapping of tertiapin-treated iaCMC-d9 monolayers, 1-Hz pacing; type: cell-based, rat; conditions: tertiapin (100 nM), iaCMCs cultured 9 days without Dox
Description: as §1

[4] = test system: adipogenically differentiated murine clone 6 and 7 tBPAs; experiment: Adrenergic stimulation of adipogenically differentiated tBPAs (glycerol production, Ucp1 transcripts); type: cell-based
iaCMCs = experiment: Dox-dependent proliferation of iaCMCs (Ki-67 immunostaining, cell counting); type: cell-based, rat; conditions: in the presence of Dox (100 ng/ml)
Description: Immunostaining of cultured cells was performed as previously described (Yu et al., 2016) using the following primary antibodies at a dilution of 1:200 in PBS containing 0.1% normal donkey serum (NDS; Sigma-Aldrich): mouse anti-LT (Santa Cruz Biotechnology, catalogue number: sc-147), rabbit anti-Ki-67 (Abcam, catalogue number: ab15580), mouse anti-α-actinin (Sigma-Aldrich, catalogue number: A7811), rabbit anti-MLC2a (Kubalak et al., 1994), rabbit anti-Cx43 (Sigma-Aldrich, catalogue number: C6219) and rabbit anti-ERG1/Kv11.1 (Millipore, catalogue number: AB5930). Bound antigens were detected using Alexa 488-conjugated donkey anti-rabbit IgG (H+L) (Thermo Fisher Scientific, catalogue number: A21206) and Alexa 568-coupled donkey anti-mouse IgG (H+L) (Thermo Fisher Scientific, catalogue number: A10037). These secondary antibodies were diluted 1:400 in PBS. Hoechst 33342 ([…]; Thermo Fisher Scientific) was used to counterstain nuclei. Stained cells were visualized using a digital color camera-equipped fluorescence microscope (Nikon Eclipse 80i; Nikon Instruments Europe, Amstelveen, The Netherlands). To assess their proliferation rate, […] were cultured at low density in medium with or without 100 ng/ml Dox. […]

Molecule: COc1ccc(CCN2CCC(Nc3nc4ccccc4n3Cc3ccc(F)cc3)CC2)cc1 [astemizole]
- conduction velocity (CV) ([1]; 0.1 µM): 14.8 ± 2.8 cm/s
- APD at 40% repolarization (APD40) ([1]; 100 nM astemizole, 30 minutes, iaCMC-d6, 1-Hz pacing, N=6, vehicle 21.5±1.0): 30.2 ± 2.1 ms
- APD at 90% repolarization (APD90) ([1]; 100 nM astemizole, 30 minutes, iaCMC-d6, 1-Hz pacing, N=6, vehicle 88.7±5.4): 110.9 ± 4.2 ms

Molecule: tertiapin (ALCNCNRIIIPHMCWKKCGKK)
- inducibility of reentry by burst pacing [2]: no longer possible to induce reentry
- termination of reentrant circuits (rotors) by prolonging APD (confluent naCMC cultures): could be terminated
- effect on APD [3]: strong increase

Molecule: C[C@H](Cc1ccc2c(c1)OC(C(=O)[O-])(C(=O)[O-])O2)NC[C@H](O)c1cccc(Cl)c1.[Na+].[Na+] [CL316243]
- Ucp1 transcript levels [4]: increased
- glycerol production [4]: increased

Molecule: NC[C@H](O)c1ccc(O)c(O)c1 [noradrenaline]
- Ucp1 transcript levels [4]: increased
- glycerol production [4]: increased

Molecule: C[C@H]1c2cccc(O)c2C(=O)C2=C(O)[C@]3(O)C(=O)C(C(N)=O)=C(O)[C@@H](N(C)C)[C@@H]3[C@@H](O)[C@@H]21 [Dox, doxycycline]
- average doubling time (iaCMCs): 38 h
- iaCMCs positive for the proliferation marker Ki-67 (iaCMCs): 72.2±8.1%

— patent US20200032213A1, “CONDITIONALLY IMMORTALIZED CELLS AND METHODS FOR THEIR PREPARATION” (Academisch Ziekenhuis Leiden h.o.d.n. LUMC, priority 2017, published 2020)
